In general, melting point refers to the temperature, or range, at which the solid turns liquid.

Read-outs that look alike come from different tables or passages of the source.

In one data set the target is PARP1 (Homo sapiens, UniProt P09874). Put plainly: PARP1 inhibition activity. Format: biochemical.
In data set [1] the test system is H9C2 (rat cardiomyocytes). Put plainly: Cytotoxicity assay (MTT, 48 h) on H9C2. Format: cell-based. The settings on record: read-out: H9C2, IC50.
Data set [2] relates to MES-SA (Human uterine sarcoma). Put plainly: Cytotoxicity assay (MTT, 48 h) on MES-SA. Format: cell-based. The procedure: Cells were cultured in modified McCoy’s 5a medium supplemented with 10% fetal bovine serum. […] After reaching approx. 90% confluence, cells were detached using 0.05% trypsin/EDTA solution and counted. Then, cells were plated at optimal density for the logarithmic phase of growth. MES-SA cells were seeded onto 96-well plate at a concentration of 3000 cells per well. Blank control wells were left cell-free for background absorption measurement. […] Control cells were incubated with media without compounds. MTT assays were performed after 48 h incubation. Briefly, culture medium was removed from each well and replaced with fresh medium with MTT (0.2 mg/mL). […] The plate was further shaken for 15 min at room temperature, and the optical density at 540 nm of the wells was measured using multichannel spectrophotometer (Thermo Scientific Multiskan EX, Waltham, MA, USA). The percent of alive cells were calculated according to the formula 100∙T/C, where T is the optical density of a test well after 48 h exposure to compound, and C is control cells optical density after 48 h. All compounds were tested in three independent experiments. The IC50 values were calculated using Graph Pad Prism (GraphPad, Inc., La Jolla, CA, USA).

Data set [3] concerns MCF-7 (human adenocarcinoma). Put plainly: Cytotoxicity assay (MTT, 48 h) on MCF-7. The format is cell-based.
The test system of data set [4] is HCC1937 (human breast carcinoma). The data set is described as follows: Cytotoxicity assay (MTT, 48 h) on HCC1937. Format: cell-based.
Data set [5] has as its system MES-SA/Dx-5 (doxorubicin resistant human uterine sarcoma). Set-up: method as in doi:10.1039/D2NJ00340F. The settings on record: MTT, cited from earlier work.
The subject of data set [6] is MES-SA/Dx-5 cells. Set-up: method as in doi:10.1039/D2NJ00340F. The settings on record: IC50 of DOX/IC50 of DOX with compound at IC20, MES-SA/Dx-5; cited from earlier work.
Data set [7] concerns MES-SA/Dx-5 cells. The data set is described as follows: Reversal of doxorubicin resistance (doxorubicin cytotoxicity in presence of compound at IC20). Format: cell-based, human. The settings on record: IC50 of DOX/IC50 of DOX with a conjugate at IC20, MES-SA/Dx-5. The procedure: To calculate reversal fold (RF) values, doxorubicin cytotoxicity was determined in the presence of the tested compounds at their corresponding IC20 concentration as described above. RF values were calculated as IC50 of DOX/IC50 of DOX in the presence of a tested compound.
Next, the cytotoxicity of 5a–c was evaluated on a doxorubicin resistant human uterus sarcoma cell line (MES-SA/Dx-5) using the MTT assay (Table 2). […] To explore the potential of the novel compounds to reverse doxorubicin resistance, cytotoxicity of doxorubicin was evaluated in the presence of 5a–c at their corresponding IC20 concentrations.

The subject of data set [8] is MES-SA/Dx-5 (doxorubicin resistant human uterine sarcoma). The data set is described as follows: cells. The settings on record: for IC20: MES-SA/Dx5, read-out: MES-SA/Dx5 IC20.
The test system is the same in data set [9]. The settings on record: MES-SA/Dx-5 vs MES-SA.
[10] abbreviates: PARP1 inhibiting activity, Table 1, read-out: PARP1.
Where [11] appears, read: Homo sapiens, MES-SA, read-out: MES-SA, IC50, MTT, 48 h.
[12] abbreviates: Homo sapiens, MCF7, 48 h, read-out: MCF-7, IC50, MTT, 48 h.
Where [13] appears, read: Homo sapiens, HCC1937, 48 h, read-out: HCC1937, IC50, MTT, 48 h, BRCA1-deficient breast carcinoma.
[14] abbreviates: MES-SA/Dx5, read-out: MES-SA/Dx5 IC50.

Sequence of PARP1 (P09874 whole entry, species assumed): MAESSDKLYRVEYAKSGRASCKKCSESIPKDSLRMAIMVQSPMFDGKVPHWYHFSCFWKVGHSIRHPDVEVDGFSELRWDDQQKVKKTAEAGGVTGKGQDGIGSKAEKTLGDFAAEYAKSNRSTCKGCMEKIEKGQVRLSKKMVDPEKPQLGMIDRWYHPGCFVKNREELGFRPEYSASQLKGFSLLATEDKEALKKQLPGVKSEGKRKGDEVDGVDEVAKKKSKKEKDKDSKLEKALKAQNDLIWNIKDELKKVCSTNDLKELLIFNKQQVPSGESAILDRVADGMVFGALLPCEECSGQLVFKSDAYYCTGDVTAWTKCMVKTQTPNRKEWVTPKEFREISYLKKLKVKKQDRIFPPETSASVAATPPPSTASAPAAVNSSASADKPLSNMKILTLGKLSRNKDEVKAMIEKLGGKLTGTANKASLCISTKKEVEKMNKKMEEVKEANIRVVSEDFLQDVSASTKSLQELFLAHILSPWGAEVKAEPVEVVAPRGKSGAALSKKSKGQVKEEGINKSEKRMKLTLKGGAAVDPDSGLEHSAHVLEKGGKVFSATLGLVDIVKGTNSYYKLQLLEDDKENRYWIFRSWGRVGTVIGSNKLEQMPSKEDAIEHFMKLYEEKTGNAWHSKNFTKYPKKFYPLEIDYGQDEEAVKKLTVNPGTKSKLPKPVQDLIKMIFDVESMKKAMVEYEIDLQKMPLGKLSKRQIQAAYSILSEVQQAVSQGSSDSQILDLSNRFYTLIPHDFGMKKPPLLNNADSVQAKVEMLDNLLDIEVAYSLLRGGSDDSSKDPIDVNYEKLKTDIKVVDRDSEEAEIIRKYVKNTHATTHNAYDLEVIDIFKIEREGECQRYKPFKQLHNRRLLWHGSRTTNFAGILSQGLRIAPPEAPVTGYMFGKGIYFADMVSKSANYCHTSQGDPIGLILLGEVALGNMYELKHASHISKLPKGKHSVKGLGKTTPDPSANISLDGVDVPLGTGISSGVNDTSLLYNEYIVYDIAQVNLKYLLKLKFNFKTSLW

As for `Cn1c(=O)c2c(Br)c(CN3CCCNCC3)[se]c2c2ccccc21` [Compound 1], the IC50 was above 1 µM at PARP1 (setting [10]); above 300 µM in data set [1] (H9c2, 48 h); 17 to 21 µM in data set [2] (setting [11]); 21 ± 3.9 µM in data set [2] (read-out: MES-SA, IC50, MTT); 17 to 21 µM in data set [3] (setting [12]); 17.1 ± 1.9 µM in data set [3] (read-out: MCF-7, IC50, MTT, 48 h). For the same molecule, the IC50 in data set [4] (setting [13]) is 17 to 21 µM; in data set [4] (read-out: HCC1937, IC50, MTT, 48 h, BRCA1-deficient breast carcinoma), 19.9 ± 4.8 µM; in [5] (read-out: MES-SA/Dx5 IC50) it was 21.1 ± 2.49 µM. Also, the PARP1 activity result at PARP1 (at 1 µM concentration) is “did not decrease PARP1 activity”. In addition, in [5] (read-out: MES-SA/Dx5 IC20), the IC20 is 7.96 ± 3.03 µM. Besides, the “RF (reversal fold)” value in the data set on MES-SA/Dx-5 cells [6] is listed as 4.72 ± 0.63.

The molecule `Cn1c(=O)c2c(Br)c(CN3CCCN(C(=O)CCC(=O)N4CCN(C(=O)c5cc(Cc6n[nH]c(=O)c7ccccc67)ccc5F)CC4)CC3)[se]c2c2ccccc21` [Compound 5a, 1-(4-((3-Bromo-5-methyl-4-oxo-4,5-dihydroselenopheno[3,2-c]quinolin-2-yl)methyl)-1,4-diazepan-1-yl)-4-(4-(2-fluoro-5-((4-oxo-3,4-dihydrophthalazin-1-yl)methyl)benzoyl)piperazin-1-yl)butane-1,4-dione] returned a melting point above 200 °C. Also, on PARP1 (setting [10]), the IC50 turned out to be 0.0046 ± 0.0005 µM. Further, the IC50 in data set [1] (H9c2, 48 h) was above 300 µM. The IC50 in [2] (setting [11]) is 7.1 ± 2.7 µM. Besides, the IC50 in [3] (setting [12]) is above 100 µM. Moreover, the IC50 in data set [4] (setting [13]) was determined as 3.1 ± 1 µM. For the same molecule, the “RF (reversal fold)” value in the data set with MES-SA/Dx-5 cells [7] was 0.84 ± 0.16. The IC20 in [8] is 0.48 ± 0.094 µM. In addition, the IC50 in data set [8] (setting [14]) is 21.1 ± 3.94 µM.

The molecule `Cn1c(=O)c2c(Br)c(CN3CCCN(C(=O)CCCCCCCCC(=O)N4CCN(C(=O)c5cc(Cc6n[nH]c(=O)c7ccccc67)ccc5F)CC4)CC3)[se]c2c2ccccc21` [Compound 5b, 1-(4-((3-Bromo-5-methyl-4-oxo-4,5-dihydroselenopheno[3,2-c]quinolin-2-yl)methyl)-1,4-diazepan-1-yl)-10-(4-(2-fluoro-5-((4-oxo-3,4-dihydrophthalazin-1-yl)methyl)benzoyl)piperazin-1-yl)decane-1,10-dione] registered a melting point of 172 to 174 °C. Also, the IC50 on PARP1 (setting [10]) stood at 0.013 ± 0.0018 µM. Besides, the IC50 in [1] (H9c2, 48 h) was above 300 µM. Moreover, the IC50 in [2] (setting [11]) stood at 32.5 ± 1.6 µM. In [3] (setting [12]), the IC50 is above 100 µM. In addition, in data set [4] (setting [13]), the IC50 was above 100 µM. In addition, the “RF (reversal fold)” value in the data set on MES-SA/Dx-5 cells [7] is on record as 3.42 ± 0.12. Further, the “times more cytotoxic to MES-SA/Dx-5 than regular MES-SA cells” value in data set [9] was around 20 times. Moreover, the IC20 in data set [8] turned out to be 0.86 ± 0.096 µM. Also, the IC50 in data set [8] (setting [14]) worked out at 1.67 ± 0.03 µM.

As for `Cn1c(=O)c2c(Br)c(CN3CCCN(C(=O)CCCCCCCCCCC(=O)N4CCN(C(=O)c5cc(Cc6n[nH]c(=O)c7ccccc67)ccc5F)CC4)CC3)[se]c2c2ccccc21` [Compound 5c, 1-(4-((3-Bromo-5-methyl-4-oxo-4,5-dihydroselenopheno[3,2-c]quinolin-2-yl)methyl)-1,4-diazepan-1-yl)-12-(4-(2-fluoro-5-((4-oxo-3,4-dihydrophthalazin-1-yl)methyl)benzoyl)piperazin-1-yl)dodecane-1,12-dione], the IC50 on PARP1 (setting [10]) is 0.147 ± 0.0022 µM; on PARP1 (read-out: PARP1 IC50) it was 0.147 µM; in data set [1] (H9c2, 48 h), above 300 µM; in [2] (setting [11]), above 100 µM; in data set [3] (setting [12]), above 100 µM; in [4] (setting [13]) it was above 100 µM. For the same molecule, the IC50 in data set [8] (setting [14]) amounted to 26.2 ± 0.03 µM. Besides, the “RF (reversal fold)” value in the data set on MES-SA/Dx-5 cells [7] turned out to be 3.36 ± 0.11. Also, in data set [8], the IC20 is 0.549 ± 0.074 µM.

In the case of `COc1cccc2c1C(=O)c1c(O)c3c(c(O)c1C2=O)C[C@@](O)(C(=O)CO)C[C@@H]3O[C@H]1C[C@H](N)[C@H](O)[C@H](C)O1` [Doxorubicin, reference compound], the IC50 in data set [1] (H9c2, MTT, 48 h) came out at 3.9 ± 0.6 µM; in data set [2] (Homo sapiens, MES-SA, MTT, read-out: MES-SA, IC50) it was 0.084 ± 0.011 µM; in [3] (Homo sapiens, MCF7, 48 h, MTT, 48 h, read-out: MCF-7, IC50), 0.47 ± 0.14 µM; in data set [4] (Homo sapiens, HCC1937, 48 h, MTT, 48 h, BRCA1-deficient breast carcinoma, read-out: HCC1937, IC50) it was 1.08 ± 0.1 µM; in data set [8] (MES-SA/Dx5, read-out: Doxorubicin IC50) it was 2.4 ± 0.41 µM.

For the molecule `O=C(c1cc(Cc2n[nH]c(=O)c3ccccc23)ccc1F)N1CCN(C(=O)C2CC2)CC1` [Olaparib, reference compound], the IC50 in data set [2] (Homo sapiens, MES-SA, read-out: MES-SA, IC50) is above 100 µM; in data set [3] (Homo sapiens, MCF7, 48 h, read-out: MCF-7, IC50), above 100 µM; in [4] (Homo sapiens, HCC1937, 48 h, read-out: HCC1937, IC50), above 100 µM; in data set [8] (setting [14]), above 100 µM.

The record behind these values is publication PMC9783898 (Pharmaceutics, 2022).
